Test results from patent US10253002B2, “Compounds and methods of treating infections” (Neoculi Pty Ltd., priority 2013, dated 2019).
Converted amounts (≈) assume the structure as drawn. Read-outs that look alike come from different tables or passages of the source.

What was measured:
Streptococcus pneumoniae = assay: Broth microdilution MIC (CLSI) in 4% LHB-CAMHB, Example 1; format: cell-based
Experimental: The powder was dissolved in 10 mL DMSO and 1 mL volumes were aliquoted into eppendorf tubes and stored at -80° C. […] Serial dilutions were prepared in 96 well plates were set up in a safety cabinet according to methods standard in the art. Briefly: 90 μL of the working antibiotic solution was added to each well in Column 12 of the plate, and mixed well, before 90 μL was transferred to column 11. The solutions were mixed again, and then transferred to the next column as before, continuing the dilutions through to column 3. Mixing the well requires the pick up and expulsion of 90 μL in each well 3-4 times before picking up and transferring the 90 μL to the next well. […] The bacterial solution was placed into a sterile trough and 10 μL of bacterial solution added into wells 2 through to 12 on each required row (dilution of 1:10, with final concentration of bacteria in wells=5×10^5 CFU/mL). The tray was sealed and incubated at 37° C. for 18-24 h. The purity of bacterial suspension was confirmed by streaking out 50 μL of the 1:20 dilution onto a SBA plate, which was incubated for 37° C. for 18 h and examined. Viable counts were carried out to ensure that the correct concentration of bacteria and been added to the wells. […] The following day the number of colonies on the plates was counted and the average count in 100 μL obtained. The study was multiplied by 10 to obtain a viable bacterial count per mL. Minimum inhibitory concentrations (μg/mL) were determined using the broth microdilution method recommended by the Clinical and Laboratory Standards Institute (CLSI) (Methods for Dilution Antimicrobial Susceptibility Tests for Bacteria That Grow Aerobically; Approved Standard-Seventh Edition. CLSI M7-A7, 2006; Performance Standards for Antimicrobial Disk and Dilution Susceptibility Tests for Bacteria Isolated from Animals; Approved Standard-Second Edition. CLSI […]-A2, 2002; Performance Standards for Antimicrobial Susceptibility Testing; CLSI M2-A9, 2006). […] Bacterial growth (turbidity) in the wells with antimicrobial was compared with the amount of growth (turbidity) in the growth-control well (containing no antimicrobial). All isolates were tested in duplicate, if there was a difference of greater than one two-fold dilution in the results, the test was repeated a third time. The purity of the isolates was closely monitored during testing by subculturing the prepared bacterial inoculum onto SBA. Control organisms (Enterococcus faecalis strain ATCC 29212, S. aureus strain ATCC 29213 and S. pneumoniae strain ATCC 49619) were used throughout the testing to monitor quality control. […] The MIC50, MIC90 and MIC range (minimum and maximum) were calculated for each of the bacterial groups.

S. pneumoniae strain D39 = assay: microbe, parasite or virus in culture; format: cell-based; conditions: Streptococcus pneumoniae
Experimental: Macro-broth dilutions were prepared as above. […] Samples were centrifuged at a relative centrifugal force (RCF) of 101.45×g for 10 min and washed in 50 mL of phosphate buffered saline (PBS) twice to remove any residual antimicrobial, and/or bacterial end products and media. Washed bacteria were resuspended and MICs were performed.

MRSA = assay: Broth microdilution MIC, Example 7 (NCL812 and analogues); format: cell-based, Staphylococcus aureus
Procedure, shortened: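 Isolates were tested in duplicate, with a third run if replicates differed by more than one two-fold dilution; inoculum purity was checked on sheep blood agar.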

## CC1(C)S[C@@H]2[C@H](NC(=O)[C@H](N)c3ccccc3)C(=O)N2[C@H]1C(=O)O [Ampicillin]
Streptococcus pneumoniae; Str. pneumoniae, 20 isolates
  MIC90: 0.25 µg/mL (≈ 0.715 µM)
Streptococcus pneumoniae; Streptococcus pneumoniae isolates of Table 5, Test 1, read-out: MIC90
  MIC90: 0.25 µg/mL (≈ 0.715 µM)
Streptococcus pneumoniae; Streptococcus pneumoniae isolates of Table 5, Test 2
  MIC90: 0.25 µg/mL (≈ 0.715 µM)
Streptococcus pneumoniae; Streptococcus pneumoniae, ATCC49619, S. pneumoniae strain ATCC 49619, read-out: MIC of control strain (internal quality control)
  MIC: 0.06 µg/mL
Streptococcus pneumoniae; Streptococcus pneumoniae, ATCC49619, Strep. pneumoniae ATCC 49619, Test 1, read-out: MIC
  MIC: < 0.25 µg/mL
Streptococcus pneumoniae; Streptococcus pneumoniae, ATCC49619, Strep. pneumoniae ATCC 49619, Test 2, read-out: MIC
  MIC: < 0.25 µg/mL
Streptococcus pneumoniae; Streptococcus pneumoniae, Strep. pneumoniae 1, Test 1, read-out: MIC
  MIC: < 0.25 µg/mL
Streptococcus pneumoniae; Streptococcus pneumoniae, Strep. pneumoniae 1, Test 2, read-out: MIC
  MIC: < 0.26 µg/mL
Streptococcus pneumoniae; Streptococcus pneumoniae, Strep. pneumoniae 2, Test 1, read-out: MIC
  MIC: < 0.26 µg/mL
Streptococcus pneumoniae; Streptococcus pneumoniae, Strep. pneumoniae 2, Test 2, read-out: MIC
  MIC: < 0.25 µg/mL
Streptococcus pneumoniae; Streptococcus pneumoniae, Strep. pneumoniae 3, Test 1, read-out: MIC
  MIC: < 0.25 µg/mL
Streptococcus pneumoniae; Streptococcus pneumoniae, Strep. pneumoniae 3, Test 2, read-out: MIC
  MIC: < 0.25 µg/mL
Streptococcus pneumoniae; Streptococcus pneumoniae, Strep. pneumoniae 4, Test 1, read-out: MIC
  MIC: < 0.25 µg/mL
Streptococcus pneumoniae; Streptococcus pneumoniae, Strep. pneumoniae 4, Test 2, read-out: MIC
  MIC: < 0.25 µg/mL
Streptococcus pneumoniae; Streptococcus pneumoniae, Strep. pneumoniae 5, Test 1, read-out: MIC
  MIC: < 0.25 µg/mL
Streptococcus pneumoniae; Streptococcus pneumoniae, Strep. pneumoniae 5, Test 2, read-out: MIC
  MIC: < 0.26 µg/mL
Streptococcus pneumoniae; Streptococcus pneumoniae, Strep. pneumoniae 6, Test 1, read-out: MIC
  MIC: < 0.26 µg/mL
Streptococcus pneumoniae; Streptococcus pneumoniae, Strep. pneumoniae 6, Test 2, read-out: MIC
  MIC: < 0.25 µg/mL
Streptococcus pneumoniae; Streptococcus pneumoniae, Strep. pneumoniae 7, Test 1, read-out: MIC
  MIC: < 0.25 µg/mL
Streptococcus pneumoniae; Streptococcus pneumoniae, Strep. pneumoniae 7, Test 2, read-out: MIC
  MIC: < 0.26 µg/mL
Streptococcus pneumoniae; Streptococcus pneumoniae, Strep. pneumoniae 8, Test 1, read-out: MIC
  MIC: < 0.25 µg/mL
Streptococcus pneumoniae; Streptococcus pneumoniae, Strep. pneumoniae 8, Test 2, read-out: MIC
  MIC: < 0.25 µg/mL
Streptococcus pneumoniae; Streptococcus pneumoniae, Strep. pneumoniae 9, Test 1, read-out: MIC
  MIC: < 0.26 µg/mL
Streptococcus pneumoniae; Streptococcus pneumoniae, Strep. pneumoniae 9, Test 2, read-out: MIC
  MIC: < 0.25 µg/mL
Streptococcus pneumoniae; Streptococcus pneumoniae, Strep. pneumoniae 10, Test 1, read-out: MIC
  MIC: < 0.06 µg/mL
Streptococcus pneumoniae; Streptococcus pneumoniae, Strep. pneumoniae 10, Test 2, read-out: MIC
  MIC: < 0.06 µg/mL
Streptococcus pneumoniae; Streptococcus pneumoniae, Strep. pneumoniae 12, Test 1, read-out: MIC
  MIC: < 0.06 µg/mL
Streptococcus pneumoniae; Streptococcus pneumoniae, Strep. pneumoniae 12, Test 2, read-out: MIC
  MIC: < 0.06 µg/mL
Streptococcus pneumoniae; Streptococcus pneumoniae, Strep. pneumoniae 13, Test 1, read-out: MIC
  MIC: < 0.06 µg/mL
Streptococcus pneumoniae; Streptococcus pneumoniae, Strep. pneumoniae 13, Test 2, read-out: MIC
  MIC: < 0.06 µg/mL
Streptococcus pneumoniae; Streptococcus pneumoniae, Strep. pneumoniae 14, Test 1, read-out: MIC
  MIC: < 0.06 µg/mL
Streptococcus pneumoniae; Streptococcus pneumoniae, Strep. pneumoniae 14, Test 2, read-out: MIC
  MIC: < 0.06 µg/mL
Streptococcus pneumoniae; Streptococcus pneumoniae, Strep. pneumoniae 15, Test 1, read-out: MIC
  MIC: 0.25 µg/mL (≈ 0.715 µM)
Streptococcus pneumoniae; Streptococcus pneumoniae, Strep. pneumoniae 15, Test 2, read-out: MIC
  MIC: 0.25 µg/mL (≈ 0.715 µM)
Streptococcus pneumoniae; Streptococcus pneumoniae, Strep. pneumoniae 16, Test 1, read-out: MIC
  MIC: 2 µg/mL (≈ 5.72 µM)
Streptococcus pneumoniae; Streptococcus pneumoniae, Strep. pneumoniae 16, Test 2, read-out: MIC
  MIC: 2 µg/mL (≈ 5.72 µM)
Streptococcus pneumoniae; Streptococcus pneumoniae, Strep. pneumoniae 18, Test 1, read-out: MIC
  MIC: 0.25 µg/mL (≈ 0.715 µM)
Streptococcus pneumoniae; Streptococcus pneumoniae, Strep. pneumoniae 18, Test 2, read-out: MIC
  MIC: 0.25 µg/mL (≈ 0.715 µM)
Streptococcus pneumoniae; Streptococcus pneumoniae, Strep. pneumoniae 19, Test 1, read-out: MIC
  MIC: 0.25 µg/mL (≈ 0.715 µM)
Streptococcus pneumoniae; Streptococcus pneumoniae, Strep. pneumoniae 19, Test 2, read-out: MIC
  MIC: 0.25 µg/mL (≈ 0.715 µM)
Streptococcus pneumoniae; Streptococcus pneumoniae, Strep. pneumoniae 20, Test 1, read-out: MIC
  MIC: 2 µg/mL (≈ 5.72 µM)
Streptococcus pneumoniae; Streptococcus pneumoniae, Strep. pneumoniae 20, Test 2, read-out: MIC
  MIC: 2 µg/mL (≈ 5.72 µM)
Streptococcus pneumoniae; Streptococcus pneumoniae, Str. pneumoniae, 20 isolates
  MIC50: < 0.25 µg/mL
Streptococcus pneumoniae; Streptococcus pneumoniae, Str. pneumoniae, 20 isolates, read-out: MIC mode
  MIC: < 0.25 µg/mL
S. pneumoniae strain D39; D39, 6 h, read-out: MBC of D39 following exposure to NCL-812 for 6 hrs
  MBC: 0.023 µg/mL
S. pneumoniae strain D39; D39, 6 h, read-out: MIC of D39 following exposure to NCL-812 for 6 hrs.
  MIC: 0.045 µg/mL
S. pneumoniae strain D39; D39, read-out: Original MBC of D39
  MBC: 0.023 µg/mL
S. pneumoniae strain D39; D39, read-out: Original MIC of D39
  MIC: 0.023 µg/mL
MRSA; MRSA 610, Phase I, 2nd
  MIC: 128 µg/mL (≈ 366 µM)
MRSA; MRSA 713, Phase II, 1st
  MIC: 128 µg/mL (≈ 366 µM)
MRSA; MRSA 713, Phase II, 2nd
  MIC: 128 µg/mL (≈ 366 µM)
MRSA; MRSA 778, Phase II, 1st
  MIC: 128 µg/mL (≈ 366 µM)
MRSA; MRSA 778, Phase II, 2nd
  MIC: 128 µg/mL (≈ 366 µM)
MRSA; MRSA 823, Phase II, 1st
  MIC: 128 µg/mL (≈ 366 µM)
MRSA; MRSA 823, Phase II, 2nd
  MIC: 128 µg/mL (≈ 366 µM)
MRSA; MRSA 844, Phase I, 1st
  MIC: 128 µg/mL (≈ 366 µM)
MRSA; MRSA 844, Phase I, 2nd
  MIC: 128 µg/mL (≈ 366 µM)
MRSA; Staphylococcus aureus, MRSA, 24 h, read-out: MIC (μg/ml) at 24 hours, MRSA 1, isolate MRSA 1, 24 hours, 1st and 2nd replicate rows
  MIC: > 128 µg/mL
MRSA; Staphylococcus aureus, MRSA, 24 h, read-out: MIC (μg/ml) at 24 hours, MRSA 2, isolate MRSA 2, 24 hours, 1st and 2nd replicate rows
  MIC: 16 µg/mL (≈ 45.8 µM)
MRSA; Staphylococcus aureus, MRSA, MRSA 516, Phase I, 1st, read-out: MIC
  MIC: 32 µg/mL (≈ 91.6 µM)
MRSA; Staphylococcus aureus, MRSA, MRSA 516, Phase I, 2nd, read-out: MIC
  MIC: 32 µg/mL (≈ 91.6 µM)
MRSA; Staphylococcus aureus, MRSA, MRSA 516, Phase II, 1st, read-out: MIC
  MIC: 32 µg/mL (≈ 91.6 µM)
MRSA; Staphylococcus aureus, MRSA, MRSA 516, Phase II, 2nd, read-out: MIC
  MIC: 16 µg/mL (≈ 45.8 µM)
MRSA; Staphylococcus aureus, MRSA, MRSA 570, Phase I, 1st, read-out: MIC
  MIC: > 128 µg/mL
MRSA; Staphylococcus aureus, MRSA, MRSA 570, Phase I, 2nd, read-out: MIC
  MIC: > 128 µg/mL
MRSA; Staphylococcus aureus, MRSA, MRSA 570, Phase II, 1st, read-out: MIC
  MIC: > 128 µg/mL
